Laboratory results as given in patent publication US9676758B2, “1-heteroaryl-indoline-4-carboxamides as modulators of GPR52 useful for the treatment or prevention of disorders related thereto” (Arena Pharmaceuticals, Inc., priority 2015, dated 2017).

Columns and labels:
[1] = test system: male Sprague-Dawley rats; test: Catalepsy (vertical grid) in rats; format: in vivo, rat; settings: Compound 13 5-100 mg/kg P.O., haloperidol 0.1, 0.3, or 1 mg/kg S.C., 45 minutes post-dose
Procedure: Catalepsy is used as a model for detecting extrapyramidal side effects of antipsychotic drugs. […] The rats were removed from home cages 45 minutes later and placed on a vertical stainless steel grid, and the latency to move both forepaws from their starting position was measured for a maximum of 30 seconds. The test was repeated three times consecutively.
Catalepsy is expressed as the average latency to move both forepaws over the three trials. Latency increased in the rats administered haloperidol (see FIG. 27B), but was unchanged in rats administered Compound 13 (see FIG. 27A).

[2] = test system: male Sprague Dawley rats; test: Plasma prolactin levels in rats (ELISA); format: in vivo, rat; settings: basal prolactin release, haloperidol 0.1 and 1 mg/kg P.O., Compound 13 1, 10, and 100 mg/kg P.O., FIG. 28A
Procedure: Another unwanted side effect of certain antipsychotics is hyperprolactinemia. To examine prolactin levels following the administration of a GPR52 agonist, male Sprague Dawley rats (Harlan Laboratories, San Diego, Calif.) were single-housed, handled, and moved to a private housing room one week prior to testing. Rats were individually handled and sham dosed P.O. for four days prior to testing. For an assessment of haloperidol (0.1 and 1 mg/kg P.O.) and Compound 13 (1, 10, and 100 mg/kg P.O.) on basal prolactin release, rats were dosed with acidic 20% HP-β-cyclodextrin (HBCD) or compound at 3 mL/kg P.O. in their housing room 60 minutes prior to harvest. For interaction studies, rats were dosed with 20% HBCD or Compound 13 (10 mg/kg P.O.) 90 minutes prior to harvest, and additionally with 20% HBCD vehicle or haloperidol (0.3 and 1 mg/kg P.O.) 60 minutes prior to harvest. Rats were individually taken to the harvest room, and trunk blood was collected into 4 mL EDTA tubes following live decapitation. Samples were stored on wet ice until collection was complete, then spun in a cooling centrifuge at 2400 rpm for 20 minutes. Plasma was collected and frozen for subsequent analysis using a Rat Prolactin ELISA kit (ALPCO Diagnostics: Cat#55-PRLRT-E01).
Briefly, frozen plasma was thawed on ice and mixed prior to initiation of the ELISA. Twenty-five microliters of sample plasma along with serially diluted standards (lyophilized purified rat prolactin diluted with rat prolactin calibrator/sample diluent), and calibrator/sample diluent used as a blank were placed in a 96-well plate provided with the ELISA kit. Samples, blank, and standards were measured in duplicate. […] Fifty microliters of stop solution (2M hydrochloric acid) was added to the wells prior to reading on a 96-well plate reader (SpectraMax® 340PC; Molecular Devices, Sunnyvale, Calif.) at […]. The quantity of prolactin in each sample was calculated using a standard curve.

- prolactin levels [2]: increased
SMILES: O=C(CCCN1CCC(O)(c2ccc(Cl)cc2)CC1)c1ccc(F)cc1 [haloperidol, reference compound]
- catalepsy: average latency to move both forepaws [1]: increased
